From patent US20170368054A1, “Treatment of Glaucoma Using Laquinimod” (Teva Pharmaceutical Industries, Ltd., priority 2013, published 2017)

What was measured:
[1] = system: genes related to antigen presentation and corresponding inflammatory pathways; conditions: mainly via the NFkB pathway (Gurevich, 2010); cited from earlier work
Brown Norway rats = conditions: rat, in vivo
Experimental: Prior to any experimental procedure, clinical observations were performed daily, body weights were obtained, intraocular pressure (IOP) was measured and detailed ocular examinations were performed on both eyes.
Clinical observations were performed daily according to Table 6 below:
Animals were weighed weekly prior to initiation of dosing. The first day the rats are weighed was designated as Study Day 1, and the beginning of Study Week 1.
Animals selected for the study were examined prior to the initial administration of the test or the control articles to ensure that both eyes were free of abnormality, damage, and disease. Both eyes were examined, scored and recorded prior to the initial dose administration using a hand held slit-lamp and a direct ophthalmoscope or the surgical microscope according to the Classification System for Grading Ocular Lesions as described in Table 7, and the Ocular Posterior Segment Scoring Scale of Table 8. Posterior segment examination was performed after topical application of Tropicamide in the conscious state, or after the rats are anesthetized with isoflorane inhalation. Only rats showing no signs of eye irritation, ocular defects, or preexisting corneal injury were used in the study. […]
Both eyes were examined and scored at one week after the second HSI and on the day of euthanasia, for a total of two times. […]

optic nerve = experiment: Optic nerve injury grading (toluidine blue cross-sections, Grade 1-5) in rat OHT model; format: in vivo, Brown Norway rats (Rattus norvegicus); conditions: for Mean ON Injury Grade (Mean±SD), Non-OHT (control) eyes / Mean ON Injury Grade (Mean±SD), OHT optic nerves: grade scale 1-5; for Mean ON Injury Grade (Mean±SD), OHT optic nerves: vehicle 3.0±1.6
Experimental: Animals were euthanized 5 weeks after the 2nd HSI. The retinas were flat-mounted, slide IDs were masked and 8 regions per retina were imaged using a confocal microscope. RGC at these regions were counted using the Image J software. After the optic nerves were extracted, they were plastic-embedded, sectioned and stained with Toluidine Blue at Schepens Eye Research Institute, Boston, Mass.. The injury in the optic nerves was evaluated and graded by microscopic examination in a masked fashion. The eyes were immediately enucleated with the optic nerve attached. An approximately 2.0 mm piece of the ON proximal to the globe is separated and labeled with tissue mark to indicate the orientation of the nerve. The ON piece is placed in Modified Karnovsky's Fixative in 0.1 M Na cacodylate buffer and kept at 4±2° C. overnight. The next day ON piece was washed at least three times for at least 10 minutes each in 0.1 M Na cacodylate buffer and stored in 0.1 M Na cacodylate buffer at 4±2° C. After specimens were transferred to a contracted processing facility, within a week, the optic nerves were processed for plastic embedding: After post-fixation in 2% osmium tetroxide in 0.1 M Na cacodylate buffer for at least 1.5 hours, ONs were dehydrated in graded ethanols, transitioned in propylene oxide and infiltrated with propylene oxide and epon mixtures. One to five (1-5) μm-thick cross-sections were taken via a microtome at the ON end approximately 2.0 mm away from the globe. ON sections were stained with 1% toluidine blue and cover-slipped. The processed specimens were returned. The identification of the ONs were masked prior to injury analysis. The ON cross-sections were analyzed for injury by light microscopy as follows: The damaging effect of the sustained IOP elevation was assessed by qualitative microscopic analysis of the ON cross-sections using a well-established grading system described in Table 9. This method allowed damage analysis of the entire retinal ganglion cell output (the ON) in one section by light microscopy and was more sensitive than counting total axons especially if there is mild nerve damage. […] The extent of injury was then graded by light microscopy based on a pattern of damage observed in rats with elevated IOP. [table] The damaging effect of the sustained IOP elevation was assessed by qualitative microscopic analysis of the ON cross-sections using a well-established grading system described in Table 9. This method allowed damage analysis of the entire retinal ganglion cell output (the ON) in one section by light microscopy and was more sensitive than counting total axons especially if there is mild nerve damage. […] The extent of injury was then graded by light microscopy based on a pattern of damage observed in rats with elevated IOP.

glaucoma human patients = experiment: Example 2: efficacy of laquinimod for treating patients afflicted with glaucoma; format: in vivo
Experimental: Example 2: Assessment of Efficacy of laquinimod for Treating Patients Afflicted with Glaucoma Periodic (e.g., daily or twice daily) administration of laquinimod (oral or topical) is effective in treating glaucoma human patients. Periodic (e.g., daily or twice daily) administration of laquinimod (oral or topical) is effective to reduce a glaucoma-associated symptom in the subject. A laquinimod composition as described herein is administered systematically or locally to the eye of a subject suffering from glaucoma. The administration of the composition is effective to treat the subject suffering from glaucoma. The administration of the composition is also effective to reduce a glaucoma-associated symptom of glaucoma in the subject.

[2] = system: Th1 (T helper 1 cell) to Th2 (T helper 2 cell) shift; conditions: animal studies (Yang, 2004; Brück, 2011); cited from earlier work
[3] = human subject with glaucoma, systemic or local administration to the eye

Question: Which “suppression of genes related to antigen presentation and corresponding inflammatory pathways” value [1] does the source give for `CCN(C(=O)c1c(O)c2c(Cl)cccc2n(C)c1=O)c1ccccc1` [Laquinimod] here?
Answer: induced suppression

Question: And the “Weight gained between day of dosing and day of euthanasia, groups compared” value (Brown Norway rats)?
Answer: did not differ

Question: And the “Mean ON Injury Grade (Mean±SD), Non-OHT (control) eyes” value (optic nerve; Group 1, topical 1% laquinimod (left eye dosed only))?
Answer: 1.1±0.1

Question: What about the “Mean ON Injury Grade (Mean±SD), OHT optic nerves” value (optic nerve; Group 1, topical 1% laquinimod) of the same compound?
Answer: 2.5±1.3

Question: And the “Mean ON Injury Grade (Mean±SD), Non-OHT (control) eyes” value (optic nerve; Group 3, topical 4% laquinimod (left eye dosed only))?
Answer: 1.2±0.2

Question: And the “Mean ON Injury Grade (Mean±SD), OHT optic nerves” value (optic nerve; Group 3, topical 4% laquinimod)?
Answer: 3.0±1.5

Question: What about the “Mean ON Injury Grade (Mean±SD), Non-OHT (control) eyes” value (optic nerve; Group 4, topical 0.25% laquinimod (left eye dosed only)) of the same compound?
Answer: 1.2±0.3

Question: What about the “Mean ON Injury Grade (Mean±SD), OHT optic nerves” value (optic nerve; Group 4, topical 0.25% laquinimod) of the same compound?
Answer: 2.8±1.3

Question: What about the “Mean ON Injury Grade (Mean±SD), Non-OHT (control) eyes” value (optic nerve; Group 5, oral 0.1% laquinimod) of the same compound?
Answer: 1.2±0.2

Question: And the “Mean ON Injury Grade (Mean±SD), OHT optic nerves” value (optic nerve; Group 5, oral 0.1% laquinimod)?
Answer: 2.7±1.5

Question: What about the “Mean ON injury grades, OHT eyes compared to Non-OHT control eyes, two-tailed paired-t tests” value (optic nerve; all groups, P<0.05) of the same compound?
Answer: significantly greater in the OHT eyes

Question: And the “Mean ON injury grades in OHT and Non-OHT eyes versus groups, Two-Way ANOVA eye versus group interaction” value (optic nerve; all groups, P=0.98)?
Answer: groups did not differ

Question: And the “Treating glaucoma / reducing a glaucoma-associated symptom” value (glaucoma human patients; human patients, periodic (e.g. daily or twice daily) oral or topical administration)?
Answer: effective

Question: What about the “Reduction of RGC damage and/or RGC loss, improvement of RGC viability” value (glaucoma human patients; [3]) of the same compound?
Answer: effective to reduce RGC damage and/or RGC loss

Question: And the “Reduction of intraocular pressure” value (glaucoma human patients; [3])?
Answer: effective to reduce intraocular pressure

Question: And the “Th1 to Th2 shift” value [2]?
Answer: causes a Th1
